Test: Oral absorption test in rats
Assay type: in vivo
Settings: male SD rats, oral 10 mg value/kg (as active substance)
Method: A compound of Example 1 of the present invention and a pivaloyloxymethyl ester derivative of the compound 32, carbapenem in which para-hydroxyphenyl group is directly substituted, which is described in the Journal of Medicinal Chemistry, Vol. 30, p 871-880, 1987 (which is one of the prior arts which are most relevant to the present invention) were orally administered to mice or rats. The concentration of the active substance in serum was measured by bioassay, and absolute bioavailability was compared respectively.
The test sample was prepared in the same manner as in the oral absorption test in mice. […] To thus treated rats were orally administered the test sample (10 mg value/kg (calculated into active substance)). […] The concentration of the active substance in the serum was measured by bioassay in the same manner as in the oral absorption in mice. […]
In regard to the test sample, the value of the concentration of the active substance in serum was plotted to the hours after administration, and calculated the concentration of the active substance-area under hours curve (AUC) or calculated reducing area under hours curve (AUC) from the concentration of the active substance. On the other hand, AUC when the active substance was intravenously administered was calculated as mentioned above. […]
The absolute availability (BA) was calculated based on the above formula.

C[C@@H](O)[C@H]1C(=O)N2C(C(=O)OCOC(=O)C(C)(C)C)=C(c3ccc(O)cc3)C[C@H]12 [comparative compound]
oral absorbability: did not show oral absorbability

— patent publication US7468364B2, “Carbapenem compounds” (Dainippon Sumitomo Pharma Co., Ltd., priority 2003, dated 2008)
